Laboratory results published in ChEMBL document CHEMBL1143686, “Alkylation potency and protein specificity of aromatic urea derivatives and bioisosteres as potential irreversible antagonists of the colchicine-binding site” (2007).
Activity calls are given as the source filed them. The rule behind the calls is not given here.

How the values were obtained:
M21 [1] = test: Growth inhibition of human M21 cells after 48 hrs; format: functional; conditions: M21, 48 h
MCF7 = test: Growth inhibition of human MCF7 cells after 48 hrs; format: functional; conditions: MCF7, 48 h
HT-29 = test: Growth inhibition of human HT29 cells after 48 hrs; format: functional; conditions: HT-29, 48 h
M21 [2] = test: Cell cycle arrest by accumulation at G2/M phase in human M21 cells after 24 hrs by flow cytometry; format: functional, cell-based
M21 [3] = test: Alkylation of beta tubulin in human M21 cells at 25 uM after 16 to 24 hrs; format: functional, cell-based
M21 [4] = test: Alkylation of beta tubulin in human M21 cells at 25 uM; format: functional, cell-based

Row | SMILES | GI50 (M21 [1]) [µM] | GI50 (MCF7) [µM] | GI50 (HT-29) [µM] | Activity (M21 [2]) | Activity (M21 [3]) | Activity (M21 [4])
1 | Cc1cc(C)cc(NC(=O)NCCCl)c1 | 16 | 31 | 8.5 | – | – | –
2 | O=C(NCCCl)Nc1ccc2c(c1)Cc1ccccc1-2 | 5.1 | 14.2 | 2.3 | Active | – | –
3 | Cc1ccc(C)c(NC2=NCCO2)c1 | 73 | 72 | 44 | – | – | –
4 | CC[C@]1(O)C[C@@H]2CN(CCc3c([nH]c4ccccc34)[C@@](C(=O)OC)(c3cc4c(cc3OC)N(C)[C@H]3[C@@](O)(C(=O)OC)[C@H](OC(C)=O)[C@]5(CC)C=CCN6CC[C@]43[C@@H]65)C2)C1 [VINBLASTINE] | 0.01 | 0.002 | 0.002 | – | – | –
5 | Cc1ccc(C)c(NC(=O)NCCCl)c1 | – | – | 67 | – | – | –
6 | CC(=O)O[C@H]1C(=O)[C@@]2(C)[C@H]([C@H](OC(=O)c3ccccc3)[C@]3(O)C[C@H](OC(=O)[C@H](O)[C@@H](NC(=O)c4ccccc4)c4ccccc4)C(C)=C1C3(C)C)[C@]1(OC(C)=O)CO[C@@H]1C[C@@H]2O [PACLITAXEL] | 0.037 | 0.054 | 0.015 | – | – | –
7 | c1cc2c(cc1NC1=NCCO1)CCC2 | 8.1 | 9.1 | 4.9 | Active | Active | –
8 | CC(C)(C)c1ccc(NC2=NCCO2)cc1 | 2.4 | 3 | 1.5 | – | Active | –
9 | Cc1cccc(NC(=O)NC(=O)CCl)c1 | 4 | 6.1 | 9 | – | – | inactive
10 | Cc1ccc(C)c(NC(=O)NC(=O)CCl)c1 | 3.8 | 5.8 | 6.7 | – | – | inactive
11 | Cc1ccc(NC(=O)NC(=O)CCl)cc1C | 4.3 | 5.5 | 6.9 | – | – | inactive
12 | Cc1cccc(NC(=O)NC(=O)CCl)c1C | 4.7 | 6.5 | 6 | – | – | inactive
13 | Ic1ccc(NC2=NCCO2)cc1 | 2 | 2.9 | 1.3 | – | Active | –
14 | O=C(CCl)NC(=O)Nc1cccc2c1CCC2 | 4.9 | 2.2 | 3.2 | – | – | inactive
15 | Cc1cc(C)cc(NC2=NCCO2)c1 | 12 | 19 | 7 | – | – | –
16 | O=C(NCCCl)Nc1ccc(I)cc1 | 3.9 | 6 | 1.9 | – | – | –
17 | O=C(NCCCl)Nc1ccc2c(c1)CCC2 | 8.9 | 17 | 4.7 | Active | – | –
18 | O=C(CCl)NC(=O)Nc1ccc2c(c1)CCC2 | 1.7 | 4 | 7 | – | – | inactive
19 | Cc1ccc(NC2=NCCO2)cc1C | 5.1 | 5.7 | 2.7 | – | Active | –
20 | CC(C)(C)c1ccc(NC(=O)NC(=O)CCl)cc1 | 1.1 | 4.8 | 3.3 | – | – | –
21 | Cc1ccc(NC2=NCCO2)cc1 | 22 | 27 | 13 | – | – | –
22 | Cc1ccc(NC(=O)NC(=O)CCl)cc1 | 4.9 | 7.5 | 10 | – | – | inactive

Row | SMILES | GI50 (M21 [1]) [µM] | GI50 (MCF7) [µM] | GI50 (HT-29) [µM] | Activity (M21 [2]) | Activity (M21 [3]) | Activity (M21 [4])
23 | CC(C)(C)c1ccc(NC(=O)NCCCl)cc1 | 4.3 | 6.2 | 2.3 | – | – | –
24 | Cc1cccc(NC(=O)NCCCl)c1 | 81 | – | 39 | – | – | –
25 | O=C(NCCCl)NC1c2ccccc2-c2ccccc21 | 38 | 21 | 16 | – | – | –
26 | Cc1ccc(NC(=O)NCCCl)c(C)c1 | – | – | 78 | – | – | –
27 | c1ccc2c(c1)-c1ccccc1C2NC1=NCCO1 | 17 | 11 | 15 | – | – | –
28 | O=C(NCCCl)Nc1cccc2c1CCC2 | – | – | 95 | – | – | –
29 | Cc1cccc(NC2=NCCO2)c1C | 17 | 15 | 9 | – | – | inactive
30 | O=C(CCl)NC(=O)Nc1ccc2c(c1)Cc1ccccc1-2 | 4.8 | 5 | 13 | – | – | inactive
31 | Cc1ccccc1NC1=NCCO1 | 18 | 21 | 13 | – | – | –
32 | COc1cc2c(c(OC)c1OC)-c1ccc(OC)c(=O)cc1[C@@H](NC(C)=O)CC2 [COLCHICINE] | 0.015 | 0.009 | 0.004 | – | – | –
33 | O=C(CCl)NC(=O)Nc1ccc(I)cc1 | 4.2 | 6.8 | 6.9 | – | – | –
34 | Cc1cc(C)cc(NC(=O)NC(=O)CCl)c1 | 3.7 | 4.3 | 6.1 | – | – | inactive
35 | c1cc2c(c(NC3=NCCO3)c1)CCC2 | 30 | 26 | 16 | – | – | –
36 | Cc1cccc(NC2=NCCO2)c1 | 61 | 52 | 33 | – | – | –
37 | Cc1ccc(NC(=O)NCCCl)cc1C | 8.4 | 12 | 4.2 | – | – | –
38 | Cc1cccc(C)c1/N=C1/NCCO1 | 27 | 23 | 15 | – | – | –
39 | Cc1cccc(C)c1NC(=O)NC(=O)CCl | 6.3 | 7.4 | 6.6 | – | – | inactive
40 | Cc1ccc(NC2=NCCO2)c(C)c1 | 26 | 23 | 15 | – | – | inactive
41 | O=C(CCl)NC(=O)NC1c2ccccc2-c2ccccc21 | 3.4 | 4.8 | 8.6 | – | – | inactive
42 | Cc1ccccc1NC(=O)NC(=O)CCl | 6.9 | 10.6 | 9.8 | – | – | inactive
43 | Cc1ccc(NC(=O)NC(=O)CCl)c(C)c1 | 7.4 | 8.6 | 11 | – | – | inactive
44 | Cc1ccc(NC(=O)NCCCl)cc1 | 33 | 44 | 16 | – | – | –
